Results: patent US9777001B2 (priority 2014, dated 2017)
Structures can show the parent of a compound that is named as a salt.

Key:
human plasma kallikrein = human plasma kallikrein (Homo sapiens, UniProt P03952); test: biochemical; conditions: purified human plasma kallikrein, substrate S-2302, sodium phosphate buffer pH 7.5
human Factor XIa = human Factor XIa (Homo sapiens, UniProt P03951); test: biochemical; conditions: purified human Factor XIa, substrate S-2366, HEPES buffer pH 7.4
human Factor XIa, sequence (P03951 388-625 limits assumed): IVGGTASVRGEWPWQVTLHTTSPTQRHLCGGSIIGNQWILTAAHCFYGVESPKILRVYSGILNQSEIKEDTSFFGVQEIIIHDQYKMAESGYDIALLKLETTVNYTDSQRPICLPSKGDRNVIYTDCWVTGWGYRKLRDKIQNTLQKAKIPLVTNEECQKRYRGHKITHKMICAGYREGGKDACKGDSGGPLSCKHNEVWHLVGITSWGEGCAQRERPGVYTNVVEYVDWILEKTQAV
human Factor XIa, sequence (P03951 19-387 partner limits assumed): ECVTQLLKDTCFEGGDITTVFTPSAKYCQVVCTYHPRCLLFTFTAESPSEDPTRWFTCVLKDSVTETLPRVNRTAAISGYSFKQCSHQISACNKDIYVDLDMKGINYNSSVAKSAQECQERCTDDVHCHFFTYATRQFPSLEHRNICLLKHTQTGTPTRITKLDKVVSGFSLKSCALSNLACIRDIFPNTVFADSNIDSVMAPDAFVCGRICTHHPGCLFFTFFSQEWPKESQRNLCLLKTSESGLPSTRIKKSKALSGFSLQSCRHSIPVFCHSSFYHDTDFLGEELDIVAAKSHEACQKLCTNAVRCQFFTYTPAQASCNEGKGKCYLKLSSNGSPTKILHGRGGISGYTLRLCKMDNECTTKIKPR

human plasma kallikrein, sequence (P03952 391-638 limits assumed): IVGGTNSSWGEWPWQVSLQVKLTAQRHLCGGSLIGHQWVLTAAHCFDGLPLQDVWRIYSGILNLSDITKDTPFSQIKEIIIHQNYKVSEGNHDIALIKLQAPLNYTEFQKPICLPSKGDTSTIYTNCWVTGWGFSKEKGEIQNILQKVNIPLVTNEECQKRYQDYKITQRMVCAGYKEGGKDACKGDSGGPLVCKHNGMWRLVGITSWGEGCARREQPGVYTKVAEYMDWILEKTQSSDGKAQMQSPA
human plasma kallikrein, sequence (P03952 20-390 partner limits assumed): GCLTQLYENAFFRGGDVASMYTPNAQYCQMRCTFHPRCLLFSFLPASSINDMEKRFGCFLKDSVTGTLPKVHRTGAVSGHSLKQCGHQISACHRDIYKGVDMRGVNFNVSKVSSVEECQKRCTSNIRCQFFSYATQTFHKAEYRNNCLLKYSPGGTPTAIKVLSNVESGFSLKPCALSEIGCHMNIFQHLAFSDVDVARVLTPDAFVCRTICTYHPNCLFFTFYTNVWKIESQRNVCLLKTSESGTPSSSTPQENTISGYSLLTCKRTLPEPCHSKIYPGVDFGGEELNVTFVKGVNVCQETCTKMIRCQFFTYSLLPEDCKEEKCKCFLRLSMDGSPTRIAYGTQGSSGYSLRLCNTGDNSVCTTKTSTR

SMILES | Ki (human plasma kallikrein) | Ki (human Factor XIa)
C[C@@H]1CCC[C@H](n2cnc(-c3cc(Cl)ccc3-n3cc(C(F)(F)F)nn3)cc2=O)c2cc(ccn2)-c2ccc(C(N)=O)cc2NC1=O [Example 76, (10R,14S)-14-(4-{5-chloro-2-[4-(trifluoromethyl)-1H-1,2,3-triazol-1-yl]phenyl}-6-oxo-1,6-dihydropyrimidin-1-yl)-10-methyl-9-oxo-8,16-diazatricyclo [13.3.1.0^2,7]nonadeca-1(19),2(7),3,5,15,17-hexaene-5-carboxamide] | 36 nM | 0.44 nM
Cc1ccc(-n2cc(C(F)(F)F)nn2)c(-c2cc(=O)n([C@H]3CCC[C@@H](C)C(=O)Nc4ccccc4-c4ccnc3c4)cn2)c1 [Example 81, (10R,14S)-10-methyl-14-(4-{5-methyl-2[4-(trifluoromethyl)-1H-1,2,3-triazol-1-yl]phenyl}-6-oxo-1,6-dihydropyrimidin-1-yl)-8,16-diazatricyclo [13.3.1.0^2,7]nonadeca-1(19),2(7),3,5,15,17-hexaen-9-one] | 66 nM | 0.63 nM
Cc1ccc(-n2cc(C(F)(F)F)nn2)c(-c2cc(=O)n([C@H]3CCC[C@@H](C)C(=O)Nc4cc(C#N)ccc4-c4ccnc3c4)cn2)c1 [Example 82, (10R,14S)-10-methyl-14-(4-{5-methyl-2-[4-(trifluoromethyl)-1H-1,2,3-triazol-1-yl]phenyl}-6-oxo-1,6-dihydropyrimidin-1-yl)-9-oxo-8,16-diazatricyclo [13.3.1.0^2,7]nonadeca-1(19),2(7),3,5,15,17-hexaene-5-carbonitrile] | 176 nM | 1.9 nM
C[C@@H]1CCC[C@H](n2cnc(-c3cc(Cl)ccc3-n3cc(Cl)nn3)cc2=O)c2cc(ccn2)-c2ccc(OC(F)F)cc2NC1=O [Example 93, (10R,14S)-14-{4-[5-chloro-2-(4-chloro-1H-1,2,3-triazol-1-yl)phenyl]-6-oxo-1,6-dihydropyrimidin-1-yl}-5-(difluoromethoxy)-10-methyl-8,16-diazatricyclo [13.3.1.0^2,7]nonadeca-1(19),2(7),3,5,15,17-hexaen-9-one trifluoroacetate] | 4000 nM | 100 nM
COc1ccc(-n2cc(C(F)(F)F)nn2)c(-c2cc(=O)n([C@H]3CCC[C@@H](C)C(=O)Nc4ccc(F)cc4-c4cncc3c4)cn2)c1 [Example 107, (10R,14S)-4-Fluoro-14-(4-{5-methoxy-2-[4-(trifluoromethyl)-1H-1,2,3-triazol-1-yl]phenyl}-6-oxo-1,6-dihydropyrimidin-1-yl)-10-methyl-8,17-diazatricyclo[13.3.1.0^2,7]nonadeca-1(19),2(7),3,5,15,17-hexaen-9-one] | 1400 nM | 142 nM
C[C@@H]1CCC[C@H](n2cnc(-c3cc(Cl)ccc3-c3csnn3)cc2=O)c2cc(ccn2)-c2cc(F)ccc2NC1=O [Example 117, (10R,14S)-14-{4-[5-chloro-2-(1,2,3-thiadiazol-4-yl)phenyl]-6-oxo-1,6-dihydropyrimidin-1-yl}-4-fluoro-10-methyl-8,16-diazatricyclo[13.3.1.0^2,7]nonadeca-1(19),2(7),3,5,15,17-hexaen-9-one] | – | 2.7 nM
C[C@@H]1CCC[C@H](n2cnc(-c3cc(Cl)cc4cnn(C)c34)cc2=O)c2cc(ccn2)-c2ccccc2NC1=O [Example 119, (10R,14S)-14-[4-(5-chloro-1-methyl-1H-indazol-7-yl)-6-oxo-1,6-dihydropyrimidin-1-yl]-10-methyl-8,16-diazatricyclo[13.3.1.0^2,7]nonadeca-1(19),2(7),3,5,15,17-hexaen-9-one] | – | 100 nM
C[C@@H]1CCC[C@H](n2cnc(-c3c(C(F)(F)F)ccc(Cl)c3F)cc2=O)c2cc(ccn2)-c2cc(F)ccc2NC1=O [Example 143, (10R,14S)-14-{4-[3-chloro-2-fluoro-6-(trifluoromethyl)phenyl]-6-oxo-1,6-dihydropyrimidin-1-yl}-4-fluoro-10-methyl-8,16-diazatricyclo[13.3.1.0^2,7]nonadeca-1(19),2(7),3,5,15,17-hexaen-9-one trifluoroacetate] | – | 17 nM
COc1ccc(Cl)cc1-c1cc(=O)n([C@H]2CCC[C@@H](C)C(=O)Nc3ccc(F)cc3-c3ccnc2c3)cn1 [Example 150, (10R,14S)-14[4-(5-chloro-2-methoxyphenyl)-6-oxo-1,6-dihydropyrimidin-1-yl]-4-fluoro-10-methyl-8,16-diazatricyclo[13.3.1.0^2,7]nonadeca-1(19),2(7),3,5,15,17-hexaen-9-one trifluoroacetate] | – | 310 nM

The next molecules have a lower Ki (human Factor XIa) than those just listed; values first:

Ki (human plasma kallikrein) | Ki (human Factor XIa) | SMILES
18 nM | 0.18 nM | C[C@@H]1CCC[C@H](n2cnc(-c3cc(Cl)ccc3-n3cc(C(F)(F)F)nn3)cc2=O)c2cc(ccn2)-c2ccc(CO)cc2NC1=O [Example 37, (10R,14S)-14-(4-{5-chloro-2-[4-(trifluoromethyl)-1H-1,2,3-triazol-1-yl]phenyl}-6-oxo-1,6-dihydropyrimidin-1-yl)-5-(hydroxymethyl)-10-methyl-8,16-diazatricyclo[13.3.1.0^2,7]nonadeca-1(19),2(7),3,5,15,17-hexaen-9-one trifluoroacetate]
– | 0.41 nM | C[C@@H]1CCC[C@H](n2cnc(-c3cc(Cl)ccc3-n3cc(C(F)(F)F)nn3)cc2=O)c2cc(ccn2)-c2c(Cl)cccc2NC1=O [Example 105, (10R,14S)-3-chloro-14-(4-{5-chloro-2-[4-(trifluoromethyl)-1H-1,2,3triazol-1-yl]phenyl}-6-oxo-1,6-dihydropyrimidin-1-yl)-10-methyl-8,16-diazatricyclo[13.3.1.0^2,7]nonadeca-1(19),2(7),3,5,15,17-hexaen-9-one]
– | 0.16 nM | C[C@@H]1CCC[C@H](n2cnc(-c3c(-n4cc(C(F)F)nn4)ccc(Cl)c3F)cc2=O)c2cc(ccn2)-c2cc(F)ccc2NC1=O [Example 134, (10R,14S)-14-(4-{3-chloro-6-[4-(difluoromethyl)-1H-1,2,3-triazol-1-yl]-2-fluorophenyl}-6-oxo-1,6-dihydropyrimidin-1-yl)-4-fluoro-10-methyl-8,16-diazatricyclo [13.3.1.0^2,7]nonadeca-1(19),2(7),3,5,15,17-hexaen-9-one trifluoroacetate]
– | 0.1 nM | C[C@@H]1CCC[C@H](n2cnc(-c3cc(Cl)ccc3-n3cc(Cl)nn3)cc2=O)c2cc(ccn2)-c2cc(F)ccc2NC1=O [Example 140, (10R,14S)-14-{4-[5-chloro-2-(4-chloro-1H-1,2,3-triazol-1-yl)phenyl]-6-oxo-1,6-dihydropyrimidin-1-yl}-4-fluoro-10-methyl-8,16-diazatricyclo[13.3.1.0^2,7]nonadeca-1(19),2(7),3,5,15,17-hexaen-9-one trifluoroacetate]
– | 0.1 nM | C[C@@H]1CCC[C@H](n2cnc(-c3cc(Cl)ccc3-n3cc(C#N)nn3)cc2=O)c2cc(ccn2)-c2cc(F)ccc2NC1=O [Example 148, 1-(4-chloro-2-{1-[(10R,14S)-4-fluoro-10-methyl-9-oxo-8,16-diazatricyclo [13.3.1.0^2,7]nonadeca-1(19),2(7),3,5,15,17-hexaen-14-yl]-6-oxo-1,6-dihydropyrimidin-4-yl}phenyl)-1H-1,2,3-triazole-4-carbonitrile trifluoroacetate]
